We go through six molecules from paper PMC8467576, “Novel Ubiquitin Specific Protease-13 Inhibitors Alleviate Neurodegenerative Pathology” (Metabolites, 2021).

For data set [1], the target named is T1, USP13 (Homo sapiens, UniProt Q92995).
T1 construct: ELISA for USP13 (MyBioSource, Cat # MBS9335287, San Diego, CA, USA); endogenous in cells; host or cells: human SH-SY5Y neuroblastoma cells transfected with human wild-type alpha-synuclein
T1 sequence (Q92995 1-863): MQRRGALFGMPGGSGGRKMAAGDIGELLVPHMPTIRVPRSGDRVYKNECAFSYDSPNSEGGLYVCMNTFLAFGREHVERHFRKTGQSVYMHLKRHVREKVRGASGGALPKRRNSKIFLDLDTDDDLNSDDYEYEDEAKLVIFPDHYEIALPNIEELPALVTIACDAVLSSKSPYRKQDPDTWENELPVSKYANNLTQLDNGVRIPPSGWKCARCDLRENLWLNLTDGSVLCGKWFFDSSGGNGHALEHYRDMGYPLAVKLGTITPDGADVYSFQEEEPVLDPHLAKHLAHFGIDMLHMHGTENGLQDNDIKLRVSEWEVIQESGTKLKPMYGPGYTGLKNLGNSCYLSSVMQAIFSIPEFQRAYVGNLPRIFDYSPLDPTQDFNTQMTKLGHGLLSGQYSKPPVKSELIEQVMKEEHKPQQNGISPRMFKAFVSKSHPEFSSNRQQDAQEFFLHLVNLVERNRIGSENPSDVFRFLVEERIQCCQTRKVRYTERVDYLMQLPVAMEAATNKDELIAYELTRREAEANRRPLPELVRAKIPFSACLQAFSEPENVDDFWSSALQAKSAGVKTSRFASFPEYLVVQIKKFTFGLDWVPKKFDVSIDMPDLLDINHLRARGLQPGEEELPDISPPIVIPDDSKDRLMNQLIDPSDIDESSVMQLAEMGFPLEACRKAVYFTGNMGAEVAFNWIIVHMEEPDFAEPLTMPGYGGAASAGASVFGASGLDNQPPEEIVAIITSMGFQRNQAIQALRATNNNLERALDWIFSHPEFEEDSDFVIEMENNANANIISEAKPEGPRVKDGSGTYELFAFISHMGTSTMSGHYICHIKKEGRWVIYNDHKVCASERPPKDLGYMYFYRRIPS
Nature of the data set: USP13 activity via functional ELISA in alpha-synuclein transfected SH-SY5Y cells. Format: cell-based. Particulars: SH-SY5Y cells transfected with human alpha-synuclein, 5 h, read-out: Estimated IC50 to USP13. As to the method:
Stably transfected human neuroblastoma SH-SY5Y cells with human wild-type alpha-synuclein were treated with 1 mM, 100 µM, 10 µM, 1 µM, 0.1 µM, 0.01 µM and 0.001 µM of each of BK50118-A, BK50118-B, BK50118-C, CL3-499, CL3-512 and CL3-514 dissolved in an equivalent volume of DMSO for 5 h. […] The other 5 compounds were also able to lower alpha-synuclein levels but with less potency (Figure 3H,I,K–M).
(§1) SH-SY5Y cells were transiently transfected for 24 h with human wild-type α-synuclein using Fugene HD transfection reagent (Promega, E2311, Madison, WI, USA) according to manufacturer’s protocol. Cells were treated with 1 mM, 0.1 mM, 0.01 mM, 1 µM, 0.1 µM, 0.01 µM and 0.001 µM of each novel compounds (BK50118-A, BK50118-B, BK50118-C, CL3-499, CL3-512 and CL3-514) dissolved in DMSO for 5 h. Cells were then harvested on ice by removing culture medium and adding 0.2 mL 1x sodium-tris, EDTA, NP-40 (STEN) buffer (50 mM Tris (pH 7.6), 150 mM NaCl, 2 mM EDTA, 0.2 % NP-40, 0.2 % with Halt protease and phosphatase inhibitor solution (ThermoFisher, 78446). Cells were detached with a cell scraper and collected into centrifuge tubes and incubated at 4 °C for 30 min with agitation. Samples were stored at −80 °C and used for ELISA analyses. For cell viability assay, SHSY-5Y cells stably expressing human wild-type alpha-synuclein were treated with 1 mM, 0.1 mM, 0.01 mM, 1 µM, 0.1 µM, 0.01 µM and 0.001 µM of each novel compound (BK50118-A, BK50118-B, BK50118-C, CL3-499, CL3-512 and CL3-514) dissolved in DMSO for 5 h. Cell viability was determined via lactate dehydrogenase assay on culture media (Thermofisher, 88954) and MTT assay on plated cells (Thermofisher, V13154).
The ELISA for USP13 (MyBioSource, Cat # MBS9335287, San Diego, CA, USA), Human alpha-synuclein (Biolegend, Cat # 844101, San Diego, CA, USA) and specific p-Tau ser396 (Invitrogen, KHB7031, Waltham, MA, USA) were performed on cell or brain tissue extracts as described above according to manufacturers’ protocol.
All statistical analyses were performed using GraphPad Prism version 5.0 (GraphPad software, Inc, San Diego, CA, USA). Two-tailed student’s t-test was used in comparison of means of two groups. Ordinary one-way analysis of variance (ANOVA) followed by Newman–Keuls or Dunnett comparison post hoc tests were used in comparison of means of multiple groups. Asterisks denote actual p-value significances (* < 0.05, ** < 0.01, *** < 0.001 and **** < 0.0001), and N is the number of animals or the number of independent experiments (cell culture) per group. Unless otherwise indicated, data are expressed as Mean ± SD. IC50 to USP13 levels was also estimated using GraphPad Prism version 5.0 (GraphPad software, Inc, San Diego, CA, USA).

In data set [2] the test system is SH-SY5Y human neuroblastoma cells. Nature of the data set: LDH and MTT cell viability assays. Format: cell-based. The note with it: 5 h; for concentration near and above which cell viability decreased: compared to DMSO or untreated controls; for cell toxicity: range of concentrations studied (0.001 µM to 1 mM). As to the method: BK50118-B and BK50118-C (Figure 2C,D) decreased cell viability near and above 100 μM compared to DMSO or untreated controls. CL3-499 (Figure 2G) decreased cell viability near and above 1 mM compared to DMSO or untreated controls.
as §1

The subject of the next data set is USP10. Further details: method as in PMID 21962518. The note with it: cited from earlier work.
Data set [3] deals with USP13. On the set-up: method as in PMID 21962518. The note with it: cited from earlier work.
On the set-up of data set [4]: method as in PMID 21962518. The note with it: cited from earlier work.

The IC50 is the concentration that inhibits the measured activity by half.

Structures are written as SMILES.

On to `c1ccc(Nc2ccnc3ccsc23)cc1` [BK50118-A, N-phenylthieno[3,2-b]pyridin-7-amine], for which the IC50 at USP13 [1] was 0.11 nM. The “concentration near and above which cell viability decreased” value in data set [2] is ≥ 0.1 µM.
Take `Fc1ccc2nccc(Nc3ccccc3)c2c1` [BK50118-B, 6-fluoro-N-phenylquinolin-4-amine]: at USP13 [1], the IC50 was 2.13 nM. In addition, the “concentration near and above which cell viability decreased” value in data set [2] was ≥ 100 µM.
The matching figures for `Fc1ccc2nccc(NCc3ccccc3)c2c1` [CL3-499, N-benzyl-6-fluoroquinolin-4-amine]: 0.29 nM and ≥ 1000 µM.
With `COC(=O)[C@H](Cc1ccccc1)Nc1c([N+](=O)[O-])c(=O)oc2ccccc12` [CL3-512, (S)-methyl (3-nitro-2-oxo-2H-chromen-4-yl)-phenylalaninate], on USP13 [1], the half-inhibitory concentration (IC50) is 0.27 nM. Besides, the cell toxicity entry in data set [2] is reported as “did not show cell toxicity”.
The matching figures for `COC(=O)[C@H](Cc1ccc(O)cc1)Nc1c([N+](=O)[O-])c(=O)oc2ccccc12` [CL3-514, (S)-methyl (3-nitro-2-oxo-2H-chromen-4-yl)-tyrosinate]: 0.61 nM and “did not show cell toxicity”.
As to `Fc1ccc(CNc2ncnc3ccc(F)cc23)cc1` [Spautin-1], the IC50 in the data set with USP10 and in the data set with USP13 [3] was 600 to 700 nM each time. Besides, the “blood-brain barrier (BBB) penetration” value in data set [4] is recorded as “does not cross the blood–brain barrier (BBB)”.
